Results on 70 compounds are retold here after patent publication US8754071B2 (priority 2011, dated 2014).

Molecules are shown by their SMILES. Like-named read-outs stand apart in the source and are kept apart here.

The target of the experiment is T1, c-kit (Homo sapiens, UniProt P10721).
T1 construct: human Mo7e cells which endogenously express c-kit; endogenous in cells; host or cells: human Mo7e cells (promegakaryocytic leukemia line), stimulated with human recombinant SCF
In words: Mo7e cell proliferation assay (SCF dependent proliferation). The class given is cell-based. The conditions noted are these: Table 2, read-out: c-kit (Mo7e). As to the method:
Mo7e Cell Proliferation Assay The compounds of Table 1 and Table 2 were tested for inhibition of SCF dependent proliferation using human Mo7e cells which endogenously express c-kit in a 384 well format. […] After 48 hours of incubation at 37° C., cell viability was measured by adding 25 uL of CellTiter Glo (Promega) to the cells and the luminescence was measured by a […] camera (Molecular Devices). […] The IC50 value is given as that concentration of the test compound in question that provoke a response halfway between the baseline and maximum responses.

Setting [1] is: human Mo7e cells stimulated with SCF, 48 hours, CellTiter Glo, 1% FBS.

T1 sequence (P10721 26-976): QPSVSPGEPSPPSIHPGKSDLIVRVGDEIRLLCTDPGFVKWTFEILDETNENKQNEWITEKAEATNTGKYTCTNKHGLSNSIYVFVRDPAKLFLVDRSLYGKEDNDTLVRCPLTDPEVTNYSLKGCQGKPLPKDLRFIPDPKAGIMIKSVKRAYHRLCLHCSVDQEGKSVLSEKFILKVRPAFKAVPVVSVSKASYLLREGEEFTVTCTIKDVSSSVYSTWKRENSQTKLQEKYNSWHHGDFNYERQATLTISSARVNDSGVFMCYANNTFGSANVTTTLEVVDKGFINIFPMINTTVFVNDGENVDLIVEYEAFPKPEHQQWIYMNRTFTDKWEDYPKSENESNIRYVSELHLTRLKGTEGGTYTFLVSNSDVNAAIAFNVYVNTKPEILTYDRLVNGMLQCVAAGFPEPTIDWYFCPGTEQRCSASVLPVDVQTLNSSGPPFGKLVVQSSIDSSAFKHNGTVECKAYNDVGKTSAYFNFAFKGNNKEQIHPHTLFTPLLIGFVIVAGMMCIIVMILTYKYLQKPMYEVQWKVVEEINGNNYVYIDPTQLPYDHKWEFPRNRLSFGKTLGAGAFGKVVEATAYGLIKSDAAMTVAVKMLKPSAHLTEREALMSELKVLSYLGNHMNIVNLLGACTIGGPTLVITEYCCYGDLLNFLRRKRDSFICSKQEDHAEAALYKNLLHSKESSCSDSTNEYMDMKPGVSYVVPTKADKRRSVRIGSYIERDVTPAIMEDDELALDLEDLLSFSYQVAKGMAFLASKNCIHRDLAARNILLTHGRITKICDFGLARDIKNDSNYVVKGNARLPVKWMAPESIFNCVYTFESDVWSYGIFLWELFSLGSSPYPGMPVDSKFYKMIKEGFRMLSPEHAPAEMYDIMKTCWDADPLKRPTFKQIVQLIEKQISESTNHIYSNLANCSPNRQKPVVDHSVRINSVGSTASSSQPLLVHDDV

As to `Cc1ccc(-c2noc(C3CCN(C(=O)OC(C)(C)C)CC3)n2)cc1NC(=O)c1cnc2ccccn12` [F105], the IC50 under setting [1] was 505 nM. The same measure, in the same setting: with `Cc1ccc(-c2noc(C3CCCN3C(=O)OC(C)(C)C)n2)cc1NC(=O)c1cnc2ccccn12` (stereo not shown) [F106] the figure was 935 nM.

As to `Cc1ccc(-c2noc(C3CCN(C(=O)OC(C)(C)C)C3)n2)cc1NC(=O)c1cnc2ccccn12` (stereo not shown) [F107], the IC50 under setting [1] is 912 nM. On the same count and under the same terms, the value for `Cc1ccc(-c2noc(C3CCCCN3)n2)cc1NC(=O)c1cnc2ccccn12` (stereo not shown) [F109] was 215 nM. For `Cc1ccc(-c2noc(C3CCCCN3S(C)(=O)=O)n2)cc1NC(=O)c1cnc2ccccn12` (stereo not shown) [F110], for the setting “values marked *: 20% FBS instead of 1% FBS”, the IC50 was determined as 227 nM. Consider `Cc1ccc(-c2noc(C3CCCCN3C)n2)cc1NC(=O)c1cnc2ccccn12` (stereo not shown) [F111], for which, under setting [1], the IC50 came to 243 nM. Still for that read-out and setting: with `Cc1ccc(-c2noc(C3CCC(O)CO3)n2)cc1NC(=O)c1cnc2ccccn12` (stereo not shown) [F112] the figure was 227 nM. As to `Cc1ccc(-c2noc(C3CN(C(=O)OC(C)(C)C)C3)n2)cc1NC(=O)c1cnc2ccccn12` [F113], the IC50 under setting [1] amounted to 623 nM. On the same count and under the same terms, with `Cc1ccc(-c2noc(C3CC[C@H](O)CO3)n2)cc1NC(=O)c1cnc2ccccn12` (stereo partly shown) [F114] the figure was 183 nM; with `CC(=O)N1CC(c2nc(-c3ccc(C)c(NC(=O)c4cnc5ccccn45)c3)no2)C1` [F115], 464 nM; with `Cc1ccc(-c2noc([C@@H]3COCCN3C(=O)OC(C)(C)C)n2)cc1NC(=O)c1cnc2ccccn12` [F116], 792 nM. On the same count and under the same terms, the value for `Cc1ccc(-c2noc([C@H]3COCCN3C(=O)OC(C)(C)C)n2)cc1NC(=O)c1cnc2ccccn12` [F117] was 629 nM; that for `Cc1ccc(-c2noc([C@H]3COCCN3)n2)cc1NC(=O)c1cnc2ccccn12` [F118] was 936 nM; that for `Cc1ccc(-c2noc([C@@H]3CCCC(=O)N3)n2)cc1NC(=O)c1cnc2ccccn12` [F119] was 434 nM. Regarding `Cc1ccc(-c2noc([C@@H]3CC(F)(F)CN3C(=O)OC(C)(C)C)n2)cc1NC(=O)c1cnc2ccccn12` [F120], under setting [1], the IC50 was found to be 311 nM. Consider `Cc1ccc(-c2noc([C@@H]3CC(F)(F)CN3)n2)cc1NC(=O)c1cnc2ccccn12` [F121], for which the IC50 under setting [1] stood at 205 nM.

`Cc1ccc(-c2noc([C@@H]3CN(C(=O)OC(C)(C)C)CCO3)n2)cc1NC(=O)c1cnc2ccccn12` [F122]: under setting [1], the IC50 came to 296 nM. Still for that read-out and setting: with `Cc1ccc(-c2noc([C@@H]3CNCCO3)n2)cc1NC(=O)c1cnc2ccccn12` [F123] the figure was 527 nM; with `Cc1ccc(-c2noc(CCC(=O)N3CCOCC3)n2)cc1NC(=O)c1cnc2ccccn12` [F124], 426 nM; with `Cc1ccc(-c2noc(CCC(=O)N3CCC(F)(F)C3)n2)cc1NC(=O)c1cnc2ccccn12` [F125], 426 nM.

For the compound `Cc1ccc(-c2noc(C3CN(C(=O)OC4(C)CC4)C3)n2)cc1NC(=O)c1cnc2ccccn12` [F126], the IC50 under setting [1] is 891 nM. Take `COCCOC(=O)N1CC(c2nc(-c3ccc(C)c(NC(=O)c4cnc5ccccn45)c3)no2)C1` [F127]: under setting [1], the IC50 worked out at 517 nM. With `Cc1ccc(-c2noc(C3(C)COC3)n2)cc1NC(=O)c1cnc2ccccn12` [F128], under setting [1], the IC50 was determined as 140 nM. With `Cc1ccc(-c2noc(CN3CC(C#N)C3)n2)cc1NC(=O)c1cnc2ccccn12` [F129], under setting [1], the IC50 amounted to 310 nM. Take `Cc1ccc(-c2noc(CN3CC(F)C3)n2)cc1NC(=O)c1cnc2ccccn12` [F130]: the IC50 under setting [1] came out at 127 nM. On the same count and under the same terms, the value for `Cc1ccc(-c2noc(CN3CC(O)C3)n2)cc1NC(=O)c1cnc2ccccn12` [F131] was 738 nM; that for `COC1CN(Cc2nc(-c3ccc(C)c(NC(=O)c4cnc5ccccn45)c3)no2)C1` [F132] was 283 nM; that for `Cc1ccc(-c2noc(C3CN(S(=O)(=O)NC(=O)OC(C)(C)C)C3)n2)cc1NC(=O)c1cnc2ccccn12` [F133] was 138 nM. Regarding `Cc1ccc(-c2noc(C3CN(C(=O)OCCN4CCOCC4)C3)n2)cc1NC(=O)c1cnc2ccccn12` [F134], under setting [1], the IC50 amounted to 892 nM. The same measure, in the same setting: with `Cc1ccc(-c2noc(C3CN(C(=O)OCCCN4CCOCC4)C3)n2)cc1NC(=O)c1cnc2ccccn12` [F135] the figure was 750 nM; with `Cc1ccc(-c2noc([C@@H]3CCN3)n2)cc1NC(=O)c1cnc2ccccn12` [F136], 543 nM. Same read-out and setting: the value for `Cc1ccc(-c2noc(COC(=O)NC3CN(C)C3)n2)cc1NC(=O)c1cnc2ccccn12` [F137] was 792 nM; that for `COC1CN(C(=O)OCc2nc(-c3ccc(C)c(NC(=O)c4cnc5ccccn45)c3)no2)C1` [F138] was 270 nM; that for `Cc1ccc(-c2noc(C3(NC(=O)OC(C)(C)C)COC3)n2)cc1NC(=O)c1cnc2ccccn12` [F139] was 139 nM. Turning to `COC(=O)NC1(c2nc(-c3ccc(C)c(NC(=O)c4cnc5ccccn45)c3)no2)COC1` [F140], the IC50 under setting [1] came to 103 nM. Still for that read-out and setting: the value for `COCC(=O)NC1(c2nc(-c3ccc(C)c(NC(=O)c4cnc5ccccn45)c3)no2)COC1` [F141] was 700 nM. Still for that read-out and setting: the value for `Cc1ccc(-c2noc(CN3CCOC3=O)n2)cc1NC(=O)c1cnc2ccccn12` [F142] was 578 nM; that for `Cc1ccc(-c2noc(CN3CCCC3=O)n2)cc1NC(=O)c1cnc2ccccn12` [F143] was 314 nM; that for `Cc1ccc(-c2noc(CNC(=O)CN3CCOCC3)n2)cc1NC(=O)c1cnc2ccccn12` [F144] was 963 nM.

For `Cc1ccc(-c2noc(CNC(=O)CC3CCCO3)n2)cc1NC(=O)c1cnc2ccccn12` (stereo not shown) [F145], under setting [1], the IC50 turned out to be 447 nM. Still for that read-out and setting: with `Cc1ccc(-c2noc(CNC(=O)[C@H]3CCCO3)n2)cc1NC(=O)c1cnc2ccccn12` [F146] the figure was 187 nM.

As for `Cc1ccc(-c2noc(CNC(=O)[C@@H]3CCCO3)n2)cc1NC(=O)c1cnc2ccccn12` [F147], the IC50 under setting [1] turned out to be 232 nM. Still for that read-out and setting: with `Cc1ccc(-c2noc(CNC(=O)C3(C)COC3)n2)cc1NC(=O)c1cnc2ccccn12` [F148] the figure was 150 nM; with `Cc1ccc(-c2noc(CNC(=O)C3CCOCC3)n2)cc1NC(=O)c1cnc2ccccn12` [F149], 684 nM. The same measure, in the same setting: the value for `Cc1ccc(-c2noc(C3CN(C(=O)OCCO)C3)n2)cc1NC(=O)c1cnc2ccccn12` [F150] was 718 nM. On the same count and under the same terms, the value for `COC(=O)N1CC[C@H]1c1nc(-c2ccc(C)c(NC(=O)c3cnc4ccccn34)c2)no1` [F151] was 357 nM; that for `CC(=O)N1CC[C@H]1c1nc(-c2ccc(C)c(NC(=O)c3cnc4ccccn34)c2)no1` [F152] was 738 nM; that for `CC(C)(C)OC(=O)N1CC(c2nc(-c3ccc(F)c(NC(=O)c4cnc5ccccn45)c3)no2)C1` [F153] was 997 nM. Consider `CS(=O)(=O)N1CC(c2nc(-c3ccc(F)c(NC(=O)c4cnc5ccccn45)c3)no2)C1` [F154], for which, under setting [1], the IC50 came to 472 nM. Still for that read-out and setting: with `CCS(=O)(=O)N1CC(c2nc(-c3ccc(F)c(NC(=O)c4cnc5ccccn45)c3)no2)C1` [F155] the figure was 120 nM; with `CCCS(=O)(=O)N1CC(c2nc(-c3ccc(F)c(NC(=O)c4cnc5ccccn45)c3)no2)C1` [F156], 124 nM; with `Cc1ccc(-c2noc(C3CN(S(=O)(=O)c4cccnc4)C3)n2)cc1NC(=O)c1cnc2ccccn12` [F157], 153 nM. For the compound `Cc1ccc(-c2noc(C3CN(S(=O)(=O)c4ccn(C)n4)C3)n2)cc1NC(=O)c1cnc2ccccn12` [F158], under setting [1], the IC50 is 527 nM. As to `Cc1ccc(-c2noc(C3CN(S(=O)(=O)C4CCOC4)C3)n2)cc1NC(=O)c1cnc2ccccn12` (stereo not shown) [F159], under setting [1], the IC50 was determined as 157 nM. Same read-out and setting: with `Cc1ccc(-c2noc(C3CN(S(=O)(=O)C4CCOCC4)C3)n2)cc1NC(=O)c1cnc2ccccn12` [F160] the figure was 380 nM; with `COC(=O)CCS(=O)(=O)N1CC(c2nc(-c3ccc(C)c(NC(=O)c4cnc5ccccn45)c3)no2)C1` [F161], 145 nM; with `Cc1ccc(-c2noc(C3CN(S(=O)(=O)C4CCN(C(=O)OC(C)(C)C)C4)C3)n2)cc1NC(=O)c1cnc2ccccn12` (stereo not shown) [F162], 249 nM.

As for `Cc1ccc(-c2noc(C3CN(S(=O)(=O)C4CCN(C(=O)OC(C)(C)C)CC4)C3)n2)cc1NC(=O)c1cnc2ccccn12` [F163], under setting [1], the IC50 came to 185 nM. Still for that read-out and setting: with `COC(=O)N1CCOC[C@H]1c1nc(-c2ccc(C)c(NC(=O)c3cnc4ccccn34)c2)no1` [F164] the figure was 269 nM; with `Cc1ccc(-c2noc([C@@H]3COCCN3S(C)(=O)=O)n2)cc1NC(=O)c1cnc2ccccn12` [F165], 362 nM; with `COC(=O)N1CCOC[C@@H]1c1nc(-c2ccc(C)c(NC(=O)c3cnc4ccccn34)c2)no1` [F166], 163 nM. In the case of `Cc1ccc(-c2noc([C@H]3COCCN3S(C)(=O)=O)n2)cc1NC(=O)c1cnc2ccccn12` [F167], the IC50 under setting [1] worked out at 102 nM.

`CC(=O)N1CCOC[C@@H]1c1nc(-c2ccc(C)c(NC(=O)c3cnc4ccccn34)c2)no1` [F168]: under setting [1], the IC50 amounted to 358 nM. In the case of `COC(=O)N1CCC(c2nc(-c3ccc(C)c(NC(=O)c4cnc5ccccn45)c3)no2)C1` (stereo not shown) [F169], the IC50 under setting [1] was 132 nM. Take `Cc1ccc(-c2noc(C3CCN(S(C)(=O)=O)C3)n2)cc1NC(=O)c1cnc2ccccn12` (stereo not shown) [F170]: the IC50 under setting [1] was 137 nM. Same read-out and setting: with `CC(=O)N1CCC(c2nc(-c3ccc(C)c(NC(=O)c4cnc5ccccn45)c3)no2)C1` (stereo not shown) [F171] the figure was 240 nM. Same read-out and setting: the value for `COC(=O)N1CC(F)(F)C[C@H]1c1nc(-c2ccc(C)c(NC(=O)c3cnc4ccccn34)c2)no1` [F172] was 122 nM; that for `CC(=O)N1CC(F)(F)C[C@H]1c1nc(-c2ccc(C)c(NC(=O)c3cnc4ccccn34)c2)no1` [F173] was 212 nM. For the compound `Cc1ccc(-c2noc(C3CN(C(=O)N(C)C)C3)n2)cc1NC(=O)c1cnc2ccccn12` [F174], the IC50 under setting [1] came to 831 nM. Turning to `Cc1ccc(-c2noc(C3CN(C(=O)OC(C)(C)C)CCO3)n2)cc1NC(=O)c1cnc2ccccn12` (stereo not shown) [F175], the IC50 under setting [1] turned out to be 728 nM.
